Legend:
Assay in all cases: relative viability (nuclei count vs DMSO), 5 days (fraction); higher = more cells survive
HARA = test system: HARA
Outline: (§1)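 Lung cancer cell lines were pin-tool dosed in 1536-well plates on the day after seeding, with either a lone drug or a fixed anchor-drug dose plus five library-drug doses (not always all listed) in √10 steps. Nuclei were counted on 4× images after 5 days. Relative viability is the ratio of treated-well to vehicle-well nuclei counts, with each value a median of duplicate plates.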

PC-14 = test system: PC-14
Outline: as §1

NCI-H1993 = test system: NCI-H1993
Outline: as §1

NCI-H1915 = test system: NCI-H1915
Outline: as §1

NCI-H2347 = test system: NCI-H2347
Outline: as §1

UMC-11 = test system: UMC-11
Outline: as §1

LU99A = test system: LU99A
Outline: as §1

NCI-H358 = test system: NCI-H358
Outline: as §1

NCI-H650 = test system: NCI-H650
Outline: as §1

NCI-H2126 = test system: NCI-H2126
Outline: as §1

NCI-H1355 = test system: NCI-H1355
Outline: as §1

NCI-H838 = test system: NCI-H838
Outline: as §1

NCI-H1651 = test system: NCI-H1651
Outline: as §1

EPLC-272H = test system: EPLC-272H
Outline: as §1

COR-L23 = test system: COR-L23
Outline: as §1

ABC-1 = test system: ABC-1
Outline: as §1

NCI-H2023 = test system: NCI-H2023
Outline: as §1

HOP-62 = test system: HOP-62
Outline: as §1

SW 1573 = test system: SW 1573
Outline: as §1

LC-2-ad = test system: LC-2-ad
Outline: as §1

HCC-44 = test system: HCC-44
Outline: as §1

NCI-H2085 = test system: NCI-H2085
Outline: as §1

HCC-15 = test system: HCC-15
Outline: as §1

For O=c1cc(N2CCOCC2)oc2c(-c3cccc4c3sc3ccccc34)cccc12 + O=C(CCCCCCC(=O)Nc1ccccc1)NO [Vorinostat] (partner 1 µM), which relative viability (HARA; first compound 0.01 µM) is on record?
The relative viability was 0.409.

And the relative viability (HARA; first compound 0.03162 µM)?
The relative viability was 0.588.

What about the relative viability (HARA; first compound 0.1 µM) of the same compound?
The relative viability was 0.543.

What about the relative viability (HARA; first compound 0.3162 µM) of the same compound?
The relative viability was 0.546.

And the relative viability (HARA; first compound 1 µM)?
Its relative viability is 0.46.

What about the relative viability (PC-14; first compound 0.01 µM) of the same compound?
Its relative viability is 0.682.

What about the relative viability (PC-14; first compound 0.03162 µM) of the same compound?
Its relative viability is 0.75.

What about the relative viability (PC-14; first compound 0.1 µM) of the same compound?
Its relative viability is 0.713.

What about the relative viability (PC-14; first compound 0.3162 µM) of the same compound?
The relative viability was 0.84.

And the relative viability (PC-14; first compound 1 µM)?
The relative viability was 0.768.

And the relative viability (NCI-H1993; first compound 0.01 µM)?
The relative viability was 1.21.

And the relative viability (NCI-H1993; first compound 0.03162 µM)?
The relative viability was 0.769.

What about the relative viability (NCI-H1993; first compound 0.1 µM) of the same compound?
Its relative viability is 0.94.

And the relative viability (NCI-H1993; first compound 0.3162 µM)?
Its relative viability is 0.851.

What about the relative viability (NCI-H1993; first compound 1 µM) of the same compound?
The relative viability was 0.697.

And the relative viability (NCI-H1915; first compound 0.01 µM)?
The relative viability was 0.497.

And the relative viability (NCI-H1915; first compound 0.03162 µM)?
Its relative viability is 0.596.

What about the relative viability (NCI-H1915; first compound 0.1 µM) of the same compound?
The relative viability was 0.521.

What about the relative viability (NCI-H1915; first compound 0.3162 µM) of the same compound?
Its relative viability is 0.516.

What about the relative viability (NCI-H1915; first compound 1 µM) of the same compound?
The relative viability was 0.544.

What about the relative viability (NCI-H2347; first compound 0.01 µM) of the same compound?
The relative viability was 0.622.

What about the relative viability (NCI-H2347; first compound 0.03162 µM) of the same compound?
The relative viability was 0.547.

And the relative viability (NCI-H2347; first compound 0.1 µM)?
Its relative viability is 0.534.

What about the relative viability (NCI-H2347; first compound 0.3162 µM) of the same compound?
The relative viability was 0.595.

And the relative viability (NCI-H2347; first compound 1 µM)?
The relative viability was 0.635.

What about the relative viability (UMC-11; first compound 0.01 µM) of the same compound?
Its relative viability is 0.386.

And the relative viability (UMC-11; first compound 0.03162 µM)?
Its relative viability is 0.368.

What about the relative viability (UMC-11; first compound 0.1 µM) of the same compound?
The relative viability was 0.365.

And the relative viability (UMC-11; first compound 0.3162 µM)?
The relative viability was 0.429.

And the relative viability (UMC-11; first compound 1 µM)?
Its relative viability is 0.311.

And the relative viability (LU99A; first compound 0.01 µM)?
Its relative viability is 0.489.

And the relative viability (LU99A; first compound 0.03162 µM)?
The relative viability was 0.491.

What about the relative viability (LU99A; first compound 0.1 µM) of the same compound?
The relative viability was 0.446.

What about the relative viability (LU99A; first compound 0.3162 µM) of the same compound?
The relative viability was 0.512.

What about the relative viability (LU99A; first compound 1 µM) of the same compound?
The relative viability was 0.491.

And the relative viability (NCI-H358; first compound 0.01 µM)?
The relative viability was 0.676.

And the relative viability (NCI-H358; first compound 0.03162 µM)?
Its relative viability is 0.619.

What about the relative viability (NCI-H358; first compound 0.1 µM) of the same compound?
Its relative viability is 0.75.

And the relative viability (NCI-H358; first compound 0.3162 µM)?
The relative viability was 0.702.

And the relative viability (NCI-H358; first compound 1 µM)?
Its relative viability is 0.689.

And the relative viability (NCI-H650; first compound 0.01 µM)?
The relative viability was 0.537.

What about the relative viability (NCI-H650; first compound 0.03162 µM) of the same compound?
Its relative viability is 0.412.

And the relative viability (NCI-H650; first compound 0.3162 µM)?
Its relative viability is 0.496.

And the relative viability (NCI-H650; first compound 1 µM)?
The relative viability was 0.402.

What about the relative viability (NCI-H2126; first compound 0.01 µM) of the same compound?
Its relative viability is 0.84.

And the relative viability (NCI-H2126; first compound 0.03162 µM)?
Its relative viability is 0.751.

And the relative viability (NCI-H2126; first compound 0.1 µM)?
The relative viability was 0.668.

What about the relative viability (NCI-H2126; first compound 0.3162 µM) of the same compound?
Its relative viability is 0.734.

What about the relative viability (NCI-H2126; first compound 1 µM) of the same compound?
Its relative viability is 0.771.

What about the relative viability (NCI-H1355; first compound 0.01 µM) of the same compound?
Its relative viability is 0.681.

What about the relative viability (NCI-H1355; first compound 0.03162 µM) of the same compound?
The relative viability was 0.613.

What about the relative viability (NCI-H1355; first compound 0.1 µM) of the same compound?
The relative viability was 0.598.

What about the relative viability (NCI-H1355; first compound 0.3162 µM) of the same compound?
Its relative viability is 0.663.

And the relative viability (NCI-H1355; first compound 1 µM)?
The relative viability was 0.598.

And the relative viability (NCI-H838; first compound 0.01 µM)?
Its relative viability is 0.752.

And the relative viability (NCI-H838; first compound 0.03162 µM)?
Its relative viability is 0.716.

And the relative viability (NCI-H838; first compound 0.1 µM)?
Its relative viability is 0.686.

And the relative viability (NCI-H838; first compound 0.3162 µM)?
The relative viability was 0.657.

And the relative viability (NCI-H838; first compound 1 µM)?
Its relative viability is 0.698.

What about the relative viability (NCI-H1651; first compound 0.01 µM) of the same compound?
Its relative viability is 0.55.

And the relative viability (NCI-H1651; first compound 0.03162 µM)?
The relative viability was 0.556.

And the relative viability (NCI-H1651; first compound 0.1 µM)?
Its relative viability is 0.528.

What about the relative viability (NCI-H1651; first compound 0.3162 µM) of the same compound?
Its relative viability is 0.567.

What about the relative viability (NCI-H1651; first compound 1 µM) of the same compound?
Its relative viability is 0.489.

What about the relative viability (EPLC-272H; first compound 0.01 µM) of the same compound?
The relative viability was 0.539.

What about the relative viability (EPLC-272H; first compound 0.03162 µM) of the same compound?
The relative viability was 0.4.

And the relative viability (EPLC-272H; first compound 0.1 µM)?
Its relative viability is 0.54.

And the relative viability (EPLC-272H; first compound 0.3162 µM)?
Its relative viability is 0.358.

And the relative viability (EPLC-272H; first compound 1 µM)?
Its relative viability is 0.5.

And the relative viability (COR-L23; first compound 0.01 µM)?
The relative viability was 0.578.

And the relative viability (COR-L23; first compound 0.03162 µM)?
Its relative viability is 0.503.

And the relative viability (COR-L23; first compound 0.1 µM)?
The relative viability was 0.473.

And the relative viability (COR-L23; first compound 0.3162 µM)?
Its relative viability is 0.424.

And the relative viability (COR-L23; first compound 1 µM)?
The relative viability was 0.54.

And the relative viability (ABC-1; first compound 0.01 µM)?
Its relative viability is 1.36.

And the relative viability (ABC-1; first compound 0.03162 µM)?
The relative viability was 1.58.

And the relative viability (ABC-1; first compound 0.1 µM)?
The relative viability was 1.31.

And the relative viability (ABC-1; first compound 0.3162 µM)?
The relative viability was 1.17.

And the relative viability (ABC-1; first compound 1 µM)?
The relative viability was 1.02.

What about the relative viability (NCI-H2023; first compound 0.01 µM) of the same compound?
Its relative viability is 0.733.

What about the relative viability (NCI-H2023; first compound 0.03162 µM) of the same compound?
Its relative viability is 0.76.

And the relative viability (NCI-H2023; first compound 0.1 µM)?
Its relative viability is 0.786.

What about the relative viability (NCI-H2023; first compound 0.3162 µM) of the same compound?
The relative viability was 0.55.

What about the relative viability (NCI-H2023; first compound 1 µM) of the same compound?
The relative viability was 0.677.

What about the relative viability (HOP-62; first compound 0.01 µM) of the same compound?
The relative viability was 0.554.

And the relative viability (HOP-62; first compound 0.03162 µM)?
Its relative viability is 0.775.

What about the relative viability (HOP-62; first compound 0.1 µM) of the same compound?
The relative viability was 0.58.

And the relative viability (HOP-62; first compound 0.3162 µM)?
The relative viability was 0.605.

What about the relative viability (HOP-62; first compound 1 µM) of the same compound?
The relative viability was 0.685.

What about the relative viability (SW 1573; first compound 0.01 µM) of the same compound?
Its relative viability is 0.572.

And the relative viability (SW 1573; first compound 0.03162 µM)?
Its relative viability is 0.767.

What about the relative viability (SW 1573; first compound 0.1 µM) of the same compound?
Its relative viability is 0.55.

What about the relative viability (SW 1573; first compound 0.3162 µM) of the same compound?
The relative viability was 0.614.

What about the relative viability (SW 1573; first compound 1 µM) of the same compound?
The relative viability was 0.592.

And the relative viability (LC-2-ad; first compound 0.01 µM)?
The relative viability was 0.703.

What about the relative viability (LC-2-ad; first compound 0.03162 µM) of the same compound?
The relative viability was 0.72.

And the relative viability (LC-2-ad; first compound 0.1 µM)?
The relative viability was 0.798.

What about the relative viability (LC-2-ad; first compound 0.3162 µM) of the same compound?
The relative viability was 0.647.

And the relative viability (LC-2-ad; first compound 1 µM)?
The relative viability was 0.741.

What about the relative viability (HCC-44; first compound 0.01 µM) of the same compound?
Its relative viability is 1.05.

What about the relative viability (HCC-44; first compound 0.03162 µM) of the same compound?
Its relative viability is 1.05.

What about the relative viability (HCC-44; first compound 0.1 µM) of the same compound?
The relative viability was 1.06.

What about the relative viability (HCC-44; first compound 0.3162 µM) of the same compound?
The relative viability was 1.03.

And the relative viability (HCC-44; first compound 1 µM)?
The relative viability was 1.07.

And the relative viability (NCI-H2085; first compound 0.01 µM)?
The relative viability was 0.779.

What about the relative viability (NCI-H2085; first compound 0.03162 µM) of the same compound?
The relative viability was 0.783.

What about the relative viability (NCI-H2085; first compound 0.1 µM) of the same compound?
Its relative viability is 0.755.

And the relative viability (NCI-H2085; first compound 0.3162 µM)?
Its relative viability is 0.788.

And the relative viability (NCI-H2085; first compound 1 µM)?
Its relative viability is 0.753.

What about the relative viability (HCC-15; first compound 0.01 µM) of the same compound?
The relative viability was 0.839.

And the relative viability (HCC-15; first compound 0.03162 µM)?
Its relative viability is 0.775.

And the relative viability (HCC-15; first compound 0.1 µM)?
The relative viability was 0.858.

What about the relative viability (HCC-15; first compound 0.3162 µM) of the same compound?
The relative viability was 0.765.

What about the relative viability (HCC-15; first compound 1 µM) of the same compound?
The relative viability was 0.847.
